From ChEMBL document CHEMBL1129193, “Isosteres of nucleoside triphosphates” (Bioorg Med Chem Lett, 1996)

Legend:
[1] = target: Human immunodeficiency virus type 1 reverse transcriptase (Human immunodeficiency virus 1, UniProt Q72547); test: Inhibition of HIV-1 reverse transcriptase.
C8166 [2] = test: Compound was evaluated for anti-HIV activity against HIV-1 infected C8166 cell lines; format: functional, cell-based; conditions: Homo sapiens
CCRF-CEM [3] = test: Compound was evaluated for anti-HIV activity against HIV-2 infected CEM/0 cell lines.; format: functional, cell-based; conditions: Homo sapiens
CCRF-CEM [4] = test: Concentration of compound required to reduce viability of CEM/0 cells by 50%.; format: functional; conditions: Homo sapiens
CEM-TK(-) = test: Compound was evaluated for anti-HIV activity against HIV-2 infected CEM/TK- cell lines.; conditions: Homo sapiens
C8166 [5] = test: Concentration of compound required to reduce viability of C8166 cells by 50%.; format: functional; conditions: Homo sapiens
CCRF-CEM [6] = test: Compound was evaluated for anti-HIV activity against HIV-1 infected CEM/0 cell lines.; format: functional, cell-based; conditions: Homo sapiens
Homo sapiens = species: Homo sapiens; test: Compound was evaluated for anti-HIV activity against HIV-2 infected CEM/TK- cell lines.; format: functional, organism-based

Compound	IC50 [1]	EC50 (C8166 [2])	EC50 (CCRF-CEM [3])	CC50 (CCRF-CEM [4])	EC50 (CEM-TK(-))	CC50 (C8166 [5])	EC50 (CCRF-CEM [6])	EC50 (Homo sapiens)
Cc1cn(C2C=CC(COC(=O)CC(O)(CC(=O)OCc3ccccc3)C(=O)OCc3ccccc3)O2)c(=O)[nH]c1=O (centres undefined)	> 100 µM	1.6 µM	550 nM	64 µM	87 µM	500 µM	1600 nM	–
Cc1cn(C2C=CC(COC(=O)CC(O)(CC(=O)O)C(=O)O)O2)c(=O)[nH]c1=O (centres undefined)	> 100 µM	3.2 µM	4000 nM	209 µM	–	500 µM	4000 nM	> 250 µM
Cc1cn(C2C=CC(CNC(=O)CC(O)(CC(=O)O)C(=O)O)O2)c(=O)[nH]c1=O (centres undefined)	> 100 µM	> 2500 µM	–	–	–	> 2500 µM	–	–
C=CCOC(=O)CC(O)(CC(=O)NCC1C=CC(n2cc(C)c(=O)[nH]c2=O)O1)C(=O)OCC=C (centres undefined)	> 100 µM	400 µM	> 250000 nM	> 250 µM	–	> 1000 µM	> 250000 nM	–
COC(=O)CC(O)(CC(=O)NCC1C=CC(n2cc(C)c(=O)[nH]c2=O)O1)C(=O)OC (centres undefined)	> 100 µM	1000 µM	> 250000 nM	> 250 µM	–	> 1000 µM	> 250000 nM	–
COC(=O)CC1(CC(=O)OCC2C=CC(n3cc(C)c(=O)[nH]c3=O)O2)OCOC1=O (centres undefined)	> 100 µM	0.8 µM	2500 nM	100 µM	110 µM	400 µM	950 nM	–
C=CCOC(=O)CC(O)(CC(=O)OCC1C=CC(n2cc(C)c(=O)[nH]c2=O)O1)C(=O)OCC=C (centres undefined)	> 100 µM	1 µM	550 nM	69 µM	72 µM	500 µM	700 nM	–
Cc1cn(C2C=CC(COC(=O)CC3(CC(=O)O)OCOC3=O)O2)c(=O)[nH]c1=O (centres undefined)	> 100 µM	4 µM	4500 nM	> 250 µM	> 250 µM	1000 µM	3470 nM	–
C=CCOC(=O)CC1(CC(=O)OCC2C=CC(n3cc(C)c(=O)[nH]c3=O)O2)OCOC1=O (centres undefined)	> 100 µM	0.8 µM	1600 nM	179 µM	78 µM	500 µM	2000 nM	–
Cc1cn(C2C=CC(COC(=O)CC3(CC(=O)OCc4ccccc4)OCOC3=O)O2)c(=O)[nH]c1=O (centres undefined)	–	8 µM	3000 nM	92.8 µM	> 250 µM	400 µM	1350 nM	–
Cc1cn([C@H]2C[C@H](N=[N+]=[N-])[C@@H](CO)O2)c(=O)[nH]c1=O [ZIDOVUDINE]	> 100 µM	0.016 µM	6 nM	> 250 µM	> 250 µM	> 1000 µM	–	–
